Measured values published in patent US12115224B2, “Polypeptide conjugates for intracellular delivery of stapled peptides” (Ohio State Innovation Foundation, priority 2017, dated 2024).
Bridge positions count the residues as written; N and C are the ends. Square brackets hold non-standard residues; d marks the D form. Peptide text beside a SMILES is read from it. I, II: the chains in the order shown. 2Nal = N[C@@H](Cc1ccc2ccccc2c1)C(=O)O; NF = 5(6)-carboxynaphthofluorescein; AEEA = NCCOCCOCC(=O)O; βAla = NCCC(=O)O

Tests used:
[1] = cited from earlier work
SJSA-1 cells = test: Annexin V/propidium iodide flow cytometry assay; format: cell-based; settings: 48-hour treatment, 10% FBS
Procedure: The percentage of Annexin V+/PI+ and Annexin V+/PI− SJSA-1 cells after 48-hour treatment of inhibitors in presence of 10% FBS was measured.
The mode of action (MOA) of CPP9-sPDI upon cytosolic delivery of the MDM2 inhibitor was also considered. […] This behavior is similar to Nutlin-3a, which is known to induce p53-dependent apoptosis in certain cancer cell lines. In this study, the percentage of Annexin V+/PI+ and Annexin V+/PI− SJSA-1 cells is determined after 48-hour treatment of inhibitors in presence of 10% FBS.

HeLa cells = test: Live-cell confocal microscopy of FITC-labeled peptides; format: cell-based; settings: 5 μM FITC-labeled peptide, 2 h, 37° C.
Procedure: HeLa cells were treated with 5 μM FITC-labeled peptide for 2 h at 37° C., washed to remove excess peptide, and subjected to live-cell confocal microscopy. I, DIC; II, GFP channel; and III, overlap of I and II.
Four pairs of the peptides from Table 6 were also labeled with FITC and their entry into HeLa cells were monitored by live-cell confocal microscopy (FIG. 4).
To assess delivery aptitude of each conjugate, peptides 22-25 were labeled with FITC and their entry into HeLa cells was monitored by live-cell confocal microscopy (FIG. 21). HeLa cells were treated with 5 μM FITC-labeled peptide for 2 h at 37° C. and washed to remove excess peptide.

[2] = Anti-proliferation MTT assay, SJSA-1; format: cell-based; settings: 72-hour treatment, 0-20 μM, 10% FBS, read-out: IC50 (cytotoxicity)
Procedure: IC50 values (μM) are provided for each test compound.
In addition, the anti-proliferative effects of CPP9-sPDI (structure 23) were evaluated. FIG. 23 compares the effects of CPP9-sPDI, Nutlin-3a, R9-sPDI, sPDI, CPP9-sPDI(F10A) and Tat-sPDI (0-20 μM) on the viability of SJSA-1 cell line after 72-hour treatment in the presence of 10% FBS as measured by MTT assay.

[3] = Serum stability in 25% human serum; format: in vitro ADME; settings: 37° C., read-out: compound detected at the end of the study
Procedure: FIG. 25 is a graph showing the stability of CPP9-sPDI (structure 23) in 25% human serum at 37° C.
The serum stability of CPP9-sPDI was evaluated by incubating the conjugate in 25% human serum at 37° C. over 24 hours. […] The observed level of serum stability (cargo region) may impact the IC50 values measured for this compound.

[4] = Aqueous solubility (observation)

Question: Which pKa [1] does the source give for 5(6)-carboxynaphthofluorescein [NF] here?
Answer: The pKa was 7.8.

Question: Which “mode of anti-proliferative action (Annexin V+/PI+ and Annexin V+/PI− cells)” value (SJSA-1 cells) does the source give for `CC(=O)N[C@@H](CC(C)C)C(=O)N[C@H](C(=O)N[C@@H](Cc1ccccc1)C(=O)N[C@H]1CC(=O)NCCCC[C@@H](C(=O)N[C@@H](CCC(N)=O)C(=O)N[C@@H](CC(C)C)C(=O)N[C@H](C(=O)N[C@@H](CO)C(=O)NCCOCCOCC(=O)N[C@@H](CCCCNC(=O)CC[C@@H]2NC(=O)[C@@H](CCCNC(=N)N)NC(=O)[C@H](CCCNC(=N)N)NC(=O)[C@@H](CCCNC(=N)N)NC(=O)[C@H](CCCNC(=N)N)NC(=O)[C@H](Cc3ccc4ccccc4c3)NC(=O)[C@@H](Cc3ccccc3)NC2=O)C(N)=O)[C@@H](C)O)NC(=O)[C@H](Cc2c[nH]c3ccccc23)NC(=O)[C@H](Cc2ccc(O)cc2)NC(=O)[C@H](Cc2c[nH]cn2)NC1=O)[C@@H](C)O` [Peptide 23] (I: Ac-LTFDHYWKQLTS[AEEA]K-NH2 / II: cyclo([2Nal]R[dR]R[dR]E[dF]); lactam I:4-I:8; amide I:14-II:6) here?
Answer: Its value is “mediated by apoptotic pathways”.

Question: With `CC(=O)N[C@@H](CC(C)C)C(=O)N[C@H](C(=O)N[C@@H](Cc1ccccc1)C(=O)N[C@H]1CC(=O)NCCCC[C@@H](C(=O)N[C@@H](CCC(N)=O)C(=O)N[C@@H](CC(C)C)C(=O)N[C@H](C(=O)N[C@@H](CO)C(=O)NCCOCCOCC(=O)N[C@@H](CCCCNC(=O)CC[C@@H]2NC(=O)[C@@H](CCCNC(=N)N)NC(=O)[C@H](CCCNC(=N)N)NC(=O)[C@@H](CCCNC(=N)N)NC(=O)[C@H](CCCNC(=N)N)NC(=O)[C@H](Cc3ccc4ccccc4c3)NC(=O)[C@@H](Cc3ccccc3)NC2=O)C(N)=O)[C@@H](C)O)NC(=O)[C@H](Cc2c[nH]c3ccccc23)NC(=O)[C@H](Cc2ccc(O)cc2)NC(=O)[C@H](Cc2cnc[nH]2)NC1=O)[C@@H](C)O` [Peptide 23] (I: Ac-LTFDHYWKQLTS[AEEA]K-NH2 / II: cyclo([2Nal]R[dR]R[dR]E[dF]); lactam I:4-I:8; amide I:14-II:6) as the molecule, how does the “cellular uptake by confocal microscopy” value (HeLa cells) read?
Answer: The value was “most effective conjugate for delivering sPDI”.

Question: What about the IC50 [2] of the same molecule?
Answer: Its IC50 is 3.86 µM.

Question: And the remaining at 24 h [3]?
Answer: Its remaining at 24 h is 25%.

Question: Which aqueous solubility [4] does the source give for “NF-βA-TYRGAAQCAAQCVREV-NH2 ({NF-βAla}-TYRGAAQCAAQCVREV-NH2; bridge 8-12; not fully specified (bridges)) [Peptide 20]” here?
Answer: The aqueous solubility was “limited solubility”.
